# Like-named read-outs stand apart in the source and are kept apart here.
# Tests used:
# mtOXPHOS transcripts = assay type: cell-based, mouse; conditions: for mitoOX (composite Z-score): normalized score vs mock-treated (DMSO) wells
# reactive oxygen species = assay type: cell-based, mouse; conditions: for ROS (composite Z-score): normalized score vs mock-treated (DMSO) wells
# OXPHOS gene expression = assay type: cell-based, mouse; conditions: for GE-HTS (composite Z-score): normalized score vs mock-treated (DMSO) wells
# cytochrome c = assay type: cell-based, mouse; conditions: for cyt c (composite Z-score): normalized score vs mock-treated (DMSO) wells
# [1] = test system: cellular dehydrogenase activity; conditions: for MTT (composite Z-score): normalized score vs mock-treated (DMSO) wells
# [2] = test system: mitochondrial membrane potential; assay type: cell-based, mouse; conditions: for ΔΨm (composite Z-score): normalized score vs mock-treated (DMSO) wells
# C2C12 myotubes = conditions: for Viability (composite Z-score): normalized score vs mock-treated (DMSO) wells
# nuOXPHOS transcripts = assay type: cell-based, mouse; conditions: for nucOX (composite Z-score): normalized score vs mock-treated (DMSO) wells
# [3] = composite Z-score vs DMSO wells, Conc 20 μM
# [4] = 20 μM, composite Z-score vs DMSO
# [5] = composite Z-score vs DMSO, Conc 20 μM
# [6] = composite Z-score vs DMSO, Conc 10.62 μM
# [7] = composite Z-score vs mock-treated (DMSO) wells, Conc 20 μM
# [8] = normalized composite Z-score vs mock-treated (DMSO) wells, Conc 20 μM
structure (smiles),measurement,setting,value
CC(NCCC(c1ccccc1)c1ccccc1)c1ccccc1 (centres unmarked) [fendiline],mitoOX,mtOXPHOS transcripts; [3],−0.951
same,ROS,reactive oxygen species; [3],0.912
same,GE-HTS,OXPHOS gene expression; [3],−1.005
same,cyt c,cytochrome c,−0.405
same,cyt c,cytochrome c; [3],−0.752
same,MTT,[1]; [3],−1.007
same,ΔΨm,[2]; [3],−1.174
same,Viability,C2C12 myotubes; [3],−0.080
same,nucOX,nuOXPHOS transcripts; [3],−0.896
O=C(COc1ccc(Cl)cc1)N1CCN(Cc2ccc3c(c2)OCO3)CC1 [fipexide],mitoOX,mtOXPHOS transcripts,0.155
same,mitoOX,mtOXPHOS transcripts; [4],−0.657
same,ROS,reactive oxygen species,0.307
same,ROS,reactive oxygen species; [4],0.873
same,GE-HTS,OXPHOS gene expression,0.169
same,GE-HTS,OXPHOS gene expression; [4],−0.241
same,cyt c,cytochrome c,0.573
same,cyt c,cytochrome c; [4],−0.071
same,MTT,[1],−0.924
same,MTT,[1]; [4],−0.186
same,ΔΨm,[2],−0.624
same,ΔΨm,[2]; [4],−0.354
same,Viability,C2C12 myotubes,−0.617
same,Viability,C2C12 myotubes; [4],0.721
same,nucOX,nuOXPHOS transcripts,0.163
same,nucOX,nuOXPHOS transcripts; [4],−0.010
"Oc1ccc2c(c1)O[C@H](c1ccc(O)c(O)c1)[C@@H](O)C2 [fisetinidol, reference compound]",mitoOX (composite Z-score),mtOXPHOS transcripts; Conc 20 μM,−0.536
same,ROS (composite Z-score),reactive oxygen species; Conc 20 μM,−0.215
same,GE-HTS (composite Z-score),OXPHOS gene expression; Conc 20 μM,−0.998
same,cyt c (composite Z-score),cytochrome c; Conc 20 μM,0.234
same,MTT (composite Z-score),[1]; Conc 20 μM,−1.804
same,ΔΨm (composite Z-score),[2]; Conc 20 μM,−1.528
same,Viability (composite Z-score),C2C12 myotubes; Conc 20 μM,−1.412
same,nucOX (composite Z-score),nuOXPHOS transcripts; Conc 20 μM,−1.107
COc1cc(O)c(C(=O)/C=C/c2ccccc2)c(OC)c1 [flavokawain B],mitoOX,mtOXPHOS transcripts; [5],−1.291
same,ROS,reactive oxygen species; [5],0.292
same,GE-HTS,OXPHOS gene expression; [5],−1.453
same,cyt c,cytochrome c; [5],0.708
same,MTT,[1]; [5],−0.298
same,ΔΨm,[2]; [5],−0.302
same,Viability,C2C12 myotubes; [5],0.583
same,nucOX,nuOXPHOS transcripts; [5],−1.423
O=c1[nH]c(=O)n([C@H]2C[C@H](O)[C@@H](CO)O2)cc1F [floxuridine],mitoOX,mtOXPHOS transcripts; [3],0.539
same,ROS,reactive oxygen species; [3],0.063
same,GE-HTS,OXPHOS gene expression; [3],0.909
same,cyt c,cytochrome c; [3],−0.314
same,MTT,[1]; [3],−1.643
same,ΔΨm,[2]; [3],−1.275
same,Viability,C2C12 myotubes; [3],−0.712
same,nucOX,nuOXPHOS transcripts; [3],0.993
CC(=O)[C@@]1(O)CC[C@H]2[C@@H]3C[C@H](C)C4=CC(=O)C=C[C@]4(C)[C@@]3(F)[C@@H](O)C[C@@]21C [fluorometholone],mitoOX,mtOXPHOS transcripts; [6],1.187
same,ROS,reactive oxygen species; [6],2.141
same,GE-HTS,OXPHOS gene expression; [6],0.446
same,cyt c,cytochrome c; [6],−0.324
same,MTT,[1]; [6],−1.306
same,ΔΨm,[2]; [6],−0.299
same,Viability,C2C12 myotubes; [6],−0.965
same,nucOX,nuOXPHOS transcripts; [6],0.038
Fc1ccc(C(c2ccccc2)(c2ccccc2F)n2ccnc2)cc1 (centres unmarked) [flutrimazole],mitoOX,mtOXPHOS transcripts; [4],−0.915
same,ROS,reactive oxygen species; [4],0.781
same,GE-HTS,OXPHOS gene expression; [4],−0.763
same,cyt c,cytochrome c; [4],0.904
same,MTT,[1]; [4],−0.356
same,ΔΨm,[2]; [4],−0.429
same,Viability,C2C12 myotubes; [4],0.858
same,nucOX,nuOXPHOS transcripts; [4],−0.592
C[C@]12CCC(=O)C(O)=C1CC[C@@H]1[C@@H]2CC[C@]2(C)C(=O)CC[C@@H]12 [formestane],mitoOX,mtOXPHOS transcripts; [5],0.121
same,ROS,reactive oxygen species; [5],1.013
same,GE-HTS,OXPHOS gene expression; [5],0.097
same,cyt c,cytochrome c; [5],−0.115
same,MTT,[1]; [5],−0.725
same,ΔΨm,[2]; [5],−0.608
same,Viability,C2C12 myotubes; [5],−0.582
same,nucOX,nuOXPHOS transcripts; [5],0.050
COc1cc2ccc(=O)oc2c(OC)c1OC [fraxidin methyl ether],mitoOX,mtOXPHOS transcripts; [7],−0.103
same,ROS,reactive oxygen species; [7],0.276
same,GE-HTS,OXPHOS gene expression; [7],−0.124
same,cyt c,cytochrome c; [7],−0.098
same,MTT,[1]; [7],−2.013
same,ΔΨm,[2]; [7],−0.713
same,Viability,C2C12 myotubes; [7],−1.325
same,nucOX,nuOXPHOS transcripts; [7],−0.104
C[C@H]1C(=O)CC[C@@H]2[C@]1(C)CC[C@H]1[C@@]2(C)CC[C@@]2(C)[C@@H]3CC(C)(C)CC[C@]3(C)CC[C@]12C [friedelin],mitoOX,mtOXPHOS transcripts; [5],−0.600
same,ROS,reactive oxygen species; [5],0.449
same,GE-HTS,OXPHOS gene expression; [5],−1.043
same,cyt c,cytochrome c; [5],0.614
same,MTT,[1]; [5],−1.362
same,ΔΨm,[2]; [5],−0.867
same,Viability,C2C12 myotubes; [5],0.082
same,nucOX,nuOXPHOS transcripts; [5],−1.150
NCCCC(=O)O [gamma-aminobutyric acid],mitoOX,mtOXPHOS transcripts; [3],−0.693
same,ROS,reactive oxygen species; [3],0.209
same,GE-HTS,OXPHOS gene expression; [3],−0.119
same,cyt c,cytochrome c; [3],−0.038
same,MTT,[1]; [3],−0.777
same,ΔΨm,[2]; [3],0.550
same,Viability,C2C12 myotubes; [3],1.043
same,nucOX,nuOXPHOS transcripts; [3],0.212
COC(=O)c1c(OC)cc2c(c1C)Oc1c(Cl)c(O)c(Cl)c(C)c1C(=O)O2 [gangaleoidin],mitoOX,mtOXPHOS transcripts; [8],−0.310
same,ROS,reactive oxygen species; [8],1.356
same,GE-HTS,OXPHOS gene expression; [8],−0.512
same,cyt c,cytochrome c; [8],−0.876
same,MTT,[1]; [8],−1.213
same,ΔΨm,[2]; [8],−1.233
same,Viability,C2C12 myotubes; [8],0.889
same,nucOX,nuOXPHOS transcripts; [8],−0.587
COc1cc(O)c2c(=O)cc(-c3ccc(O)cc3)oc2c1 [genkwanin],mitoOX (composite Z-score),mtOXPHOS transcripts; Conc 20 μM,0.389
same,ROS (composite Z-score),reactive oxygen species; Conc 20 μM,3.337
same,GE-HTS (composite Z-score),OXPHOS gene expression; Conc 20 μM,0.425
same,cyt c (composite Z-score),cytochrome c; Conc 20 μM,−0.037
same,MTT (composite Z-score),[1]; Conc 20 μM,−2.090
same,ΔΨm (composite Z-score),[2]; Conc 20 μM,−0.491
same,Viability (composite Z-score),C2C12 myotubes; Conc 20 μM,−0.323
same,nucOX (composite Z-score),nuOXPHOS transcripts; Conc 20 μM,0.407
